This note sets out measurements from PubChem BioAssay (NCI).

“And” between values parts separate entries of the source, which are not always exact repeats. Identical values can stand only once.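 1) Cells in 96-well plates. 2) Compound, 48 h, 5 concentrations. 3) Linear interpolation between surrounding doses. 4) Unreached endpoint = highest concentration. Abbreviation: GI50, concentration required for 50% inhibition of growth. TGI: total growth inhibition.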

Holding throughout (assay): NCI tumour cell line growth inhibition, 48 h
The test system of test [1] is ACHN renal.
Test [2] concerns NCI/ADR-RES ovarian.
Test [3] concerns U251 CNS.
For test [4], the system named is HL-60(TB) leukemia.
Test [5] deals with HCT-116 colon.
The subject of test [6] is NCI-H226 lung.
Test [7] concerns UO-31 renal.
In test [8] the test system is CCRF-CEM leukemia.
Test [9] has as its system SNB-19 CNS.
For test [10], the system named is K-562 leukemia.

Take `OCc1c(-c2cccs2)oc(-c2cccs2)c1CO`: the GI50 in [1] was 23.8 µM; in [2] it was 40.1 µM; in test [3] it was 71.9 µM; in [4] it was 21.1 µM; in test [5], 44.1 µM; in [6], 50.3 µM. The GI50 is 50.5 µM in test [7], 48.7 µM in test [8], 67.5 µM in [9] and 41 µM in [10]. Further, the TGI in test [1] was 72.1 µM; in [2], above 100 µM; in [3] it was above 100 µM; in test [4], 70 µM; in test [5] it was above 100 µM; in [6] it was above 100 µM. Moreover, the TGI in test [7], in test [8], in test [9] and in [10] was above 100 µM throughout.

Consider `CCC/C=C/C=C/C(=O)OC1/C(=C/C(=O)OC)CC2CC(C(C)O)OC(=O)CC(O)CC3CC(OC(C)=O)C(C)(C)C(O)(CC4C/C(=C/C(=O)OC)CC(/C=C/C(C)(C)C1(O)O2)O4)O3` (stereo not given), for which the GI50 was above 12.5 µM in [1]; above 12.5 µM in test [2]; > 10.9 µM and 7.21 µM and > 12.5 µM in test [3]; 4.61 µM and 1.81 µM and > 12.5 µM in test [4]; > 10.9 µM and 5.2 µM and > 12.5 µM in test [5]; > 10.9 µM and 9.74 µM in test [6]. Also, the GI50 was > 10.9 µM and 2.48 µM and > 12.5 µM in test [7]; 8.79 µM and 5.35 µM and > 12.5 µM in test [8]; above 11 µM in test [9]; 8.57 µM and 3.77 µM and > 12.5 µM in test [10]. The TGI is 11 µM and > 12.5 µM in test [1]; above 12.5 µM in [2]; > 10.9 µM and 9.3 µM and > 12.5 µM in test [3]; 10.9 µM and 5.43 µM and > 12.5 µM in [4]; > 10.9 µM and 11 µM and > 12.5 µM in [5]; > 10.9 µM and 11 µM and > 12.5 µM in test [6]. Moreover, the TGI is > 10.9 µM and 5.23 µM and > 12.5 µM in test [7]; 10.9 µM and 11 µM and > 12.5 µM in test [8]; above 12.5 µM in test [9]; 10.9 µM and 11 µM and > 12.5 µM in test [10].

Regarding `COc1ccc2[nH]c3c(C)c4c(c(C)c3c2c1)CN(C)C=C4`, the TGI in test [1] was 64 µM; in test [2], above 100 µM; in [3] it was 1.45 µM; in test [4], 52.3 µM; in [5] it was 22.1 µM; in test [6], 1.36 µM. Moreover, the TGI in [7] worked out at 81.1 µM; in test [8], 34.7 µM; in test [9], 3.66 µM; in test [10], 46.5 µM.

Turning to `O=C(O)CCCN1C(=O)/C(=C/C(Cl)=C/c2ccccc2)SC1=S`, the GI50 was 1.2 µM in [1]; 2.39 µM in test [2]; 1.8 µM in [3]; 0.551 µM in [4]; 1.13 µM in test [5]; 2.98 µM in [6]. Moreover, the GI50 was 1.07 µM in [7], 0.786 µM in test [8], 2.78 µM in [9] and 1.52 µM in test [10]. For the same compound, the TGI was determined as 4.4 µM in test [1]; 9.35 µM in [2]; 4.63 µM in test [3]; 10.5 µM in test [4]; 4 µM in test [5]; 18.4 µM in [6]. Besides, the TGI in [7] was 2.48 µM; in test [8] it was 10.2 µM; in test [9] it was 10.9 µM; in test [10] it was 16.3 µM.

For the compound `O=C(CSSCC(=O)c1ccc(Cl)cc1)c1ccc(Cl)cc1`, the GI50 in test [1] was 8.75 µM; in test [2], 2.69 µM; in test [3], 4.16 µM; in test [4], 3.75 µM; in test [5], 3.79 µM; in [6], 11.7 µM. Also, the GI50 is 3.48 µM in [7], 3.39 µM in [8], 4.94 µM in [9] and 3.28 µM in test [10]. Moreover, the TGI in [1] was 24.1 µM; in test [2] it was 13.1 µM; in [3], 17.5 µM; in test [4], above 100 µM; in test [5] it was 14.8 µM; in [6], 30.7 µM. Further, the TGI in [7] is 17.5 µM; in test [8], above 100 µM; in test [9] it was 40.3 µM; in test [10], above 100 µM.

`COc1ccc(C2=C(c3ccc(OC)cc3)C(=O)OC2)cc1`: the GI50 in test [1] was 2.72 µM; in [2] it was 2.89 µM; in [3], 0.421 µM; in test [4], 0.525 µM; in [5], 1.97 µM; in [6], 3.2 µM. Further, the GI50 in test [7] was 3.18 µM; in [8], 3.29 µM; in test [9] it was 2.34 µM; in [10] it was 1.24 µM. Besides, the TGI in test [1] is 23.4 µM; in test [2], 28.4 µM; in test [3], 3.46 µM; in test [4], 4.58 µM; in test [5], 11.8 µM; in test [6] it was 31.4 µM. Also, the TGI is above 43.5 µM in test [7], 18.5 µM in test [8], above 100 µM in [9] and 24.3 µM in [10].
